The results in this text go back to patent US11136297B2, “Compositions and methods for treating cancer” (THE REGENTS OF THE UNIVERSITY OF CALIFORNIA, priority 2016, dated 2021).

Assay [1] deals with T1, H-Ras(M72C) GppNHp binding to Raf-1-RBD (Homo sapiens, UniProt P01112, M72C).
T1 construct: and H-Ras (residues 1-166) were transformed into Escherichia coli; His6; made in house; host or cells: Escherichia coli BL21(DE3)
Kind of assay: Raf-1-RBD pull-down of labeled H-Ras(M72C) GppNHp. Conditions: H-Ras(M72C) GppNHp pre-labeled with compound; various concentrations of H-Ras. The method, then: FIGS. 29A-29D. […] FIG. 29D: Reconstruction of Ras cycle is achieved by inducing nucleotide exchange of 100 nM Ras by various concentrations of SOS^cat for either 1 or 2 hours and subsequent pull-down by Raf-1-RBD.
FIGS. 33A-33D. […] In FIG. 33B) through FIG. 33D), normalized pull-down signals are shown below the blot. S. E. M for each signal, number of replicates, and […] for each comparative Standard T-Test are summarized herein (see Tables 33B, 33C, and 33D). […] Comparative statistics were done for normalized pull-down signals between protein constructs of the same condition (i.e. in FIG. 33B) and FIG. 33C), column 1 for unlabeled and 1 for labeled protein, 2 for unlabeled and 2 for labeled, and so on were statistically compared, and in FIG. 33D) only the +SOS^cat and +GppNHp lanes were compared across protein constructs). FIG. 33A) Cartoon representation of pull down protocol. […] Reported values are quantified pull-down signals normalized to input. FIG. 33B) Cartoon representation of pull down protocol. […] FIG. 33C) Cartoon representation of pull down protocol. […] FIG. 33D) Cartoon representation of pull down protocol. Ras activation is achieved by catalyzing nucleotide exchange by SOS^cat and indirectly reading out activated Ras by subsequent pull down by Raf-1-RBD.

Assay [2] concerns the target T1, H-Ras(M72C) GppNHp binding to Raf-1-RBD. Nature of the assay: Ras GppNHp in vitro pull down by His6-MBP-Raf-1-RBD. The following applies: H-Ras(M72C) pre-labeled with compound. The method, then: Ras GppNHp In Vitro Pull Down Assay by His6-MBP-Raf-1-RBD. For each His6-MBP-Raf-1-RBD in vitro pull down the total volume was 500 μL. Each reaction had the following final composition: Either 20, 80, 200, 400, or 800 nM Ras GppNHp (from 0.2 mg/mL Ras stock), 75 nM BSA (2.5 μg, 5 μL of 0.5 mg/mL BSA stock), 200 nM of His6-MBP-Raf-1-RBD (5.3 μg, 1.2 μL of 4.38 mg/mL stock of His6-MBP-Raf-1-RBDwitt), and Raf Pull Down Buffer to volume (25 mM Tris (pH 7.2), 150 mM NaCl, 5 mM MgCl2, 1% NP-40, 5% glycerol, 20 mM imidazole). Samples were then mixed by gentle rotation at 4° C. for 30 min. While equilibrating, add 50 μL Ni-NTA slurry (Qiagen) to a cellulose acetate spin cup and spin at 5,000 rpm on a tabletop centrifuge for 30 seconds. Wash the beads with 400 μL of Raf Pull Down Buffer to wash away bead storage buffer. Before adding each pull down solution, take 10 μL and save as a loading control sample. To each spin cup filled with washed Ni-NTA beads, add the remaining equilibrated pull down solution, seal the spin cup with parafilm and let rotate at 4° C. for 30 more minutes. After mixing, centrifuge the sample for 30 seconds at 5,000 rpm. Toss flow through. Wash the beads X 5 with 400 μL of Raf Pull Down Buffer. After last wash, centrifuge one last time to remove any excess buffer stuck to the beads. […] Blots were read out using LICOR compatible secondary antibodies. […]

Assay [3] addresses T2, H-Ras(M72C) bound to either GDP or GppNHp (Homo sapiens, UniProt P01112, M72C).
T2 construct: Labeling studies were conducted using the 1-166 H-Ras(M72C) construct containing all endogenous cysteines; His6; made in house; host or cells: Escherichia coli BL21(DE3)
Nature of the assay: Electrophile labeling experiments (percent modification by whole protein LC/MS). In kind it is binding. Conditions: 4 μM H-Ras(M72C) GDP or GppNHp, 100 μM electrophile, 24 hours. As to the method: Electrophile Labeling Experiments.
Each reaction was analyzed in a 96 well plate format for analysis by LC/MS. Total reaction volumes were 25 μL for single time point labeling experiments and 200 uL for full 24-hour time courses. 25 μL reactions were made in the wells of a V-bottom 96 well plate and 200 uL reactions were made in 1.25 mL eppendorf tubes. All labeling reactions were conducted in Gel Filtration Buffer (20 mM HEPES (pH 7.5), 150 mM NaCl) with no added reductant at room temperature. […] Electrophile stocks were made in DMSO at 10 mM, aliquoted, and frozen. Labeling reactions were started by the addition of the desired volume of 10 mM electrophile stock and mixed thoroughly by pipette. General screening of new electrophiles was done at 100 μM electrophile in triplicate and sampled as a single time point after 24 hours of incubation. For Compound 3, labeling time courses were conducted at 20 μM compound with sampling done every 2 hours for the first 10 hours of incubation and continued after overnight incubation until the protein was fully modified. Reactions were allowed to sit at room temperature in the dark (either covered in aluminum foil or in a bench drawer) until the desired time point was reached. For 24-hour single point labeling experiments, the reaction was directly sampled from the 96 well plate and analyzed by LC/MS. For experiments with multiple time points, 22.5 μL aliquots of the 200 μL master reaction were sampled and quenched by the addition of 2.5 μL of 2% formic acid (also made in Gel Filtration Buffer). This 25 μL quenched sample was then analyzed by LC/MS and the remaining master reaction was allowed to continue reacting after gentle mixing by pipette. The percent modification was analyzed by electrospray mass spectrometry using a Waters Acquity UPLC/ESI-TQD with a 2.1×50 mm Acquity UPLC BEH300 C4 column.

In a further assay the target is T3, WT H-Ras (Homo sapiens, UniProt P01112).
T3 construct: made in house; host or cells: Escherichia coli BL21(DE3)
Kind of assay: BioLayer interferometry (BLI) reversible binding. For orientation: In BLI a coated tip is dipped into the sample, and binding shifts an interference pattern.

A further assay has as its target H-Ras(M72C) GDP (Homo sapiens, UniProt P01112, M72C). Nature of the assay: Competition labeling experiments (Compound 3 vs Compound 4). Conditions: 20 μM Compound 3, varying Compound 4 (0-180), 4 μM H-Ras(M72C) GDP. Details: Labeling studies were conducted using the 1-166 H-Ras(M72C) construct containing all endogenous cysteines; His6; made in house; host or cells: Escherichia coli BL21(DE3). In kind it is binding. The method, then:
Competition Labeling Experiments.
[…] were made in Gel Filtration buffer (20 mM HEPES (pH 7.5), 150 mM NaCl) with no added reductant at room temperature. The final concentrations of each reagent were as follows: […], 1 mM MgCl2, […], X mM Compound 4, and a total DMSO concentration of 4% by volume. Compound 4 was varied from OX (0 mM), 1× (20 mM), 3× (60 mM), and 9× (180 mM) respectively. Adding the desired volume of Gel Filtration Buffer, MgCl2, DMSO, and 10 mM compound stocks of Compounds 3 and 4 was done first and mixed thoroughly before protein was added. Reactions were started by the addition and gentle mixing by pipette of concentrated Ras stocks diluted into the master reaction down to […]. Each reaction was set in triplicate and allowed to react at room temperature in the dark (either covered in aluminum foil or in a bench drawer) until the desired time point was reached. At each time point, […] aliquots of each 200 mL master reaction was sampled and quenched by the addition of […] of 2% formic acid (also made in Gel Filtration Buffer). This 25 mL quenched sample was then analyzed by LC/MS and the remaining master reaction was allowed to continue reacting after gentle mixing by pipette. The percent modification was analyzed by electrospray mass spectrometry using a Waters Acquity UPLC/ESI-TQD with a 2.1×50 mm Acquity UPLC BEH300 C4 column.

In the case of `C=CC(=O)Nc1cccc(NC(=O)c2cnn(-c3ccc(OC)cc3)c2C(F)(F)F)c1` [Compound 2, N-(3-acrylamidophenyl)-1-(4-methoxyphenyl)-5-(trifluoromethyl)-1H-pyrazole-4-carboxamide], the Raf-1-RBD binding result in assay [1] is reported as “do not inhibit Raf RBD binding”. The “Raf-1-RBD binding (pull down), labeled vs unlabeled H-Ras(M72C)” value in assay [2] is given as “did not inhibit Raf-1-RBD binding”. Moreover, the “Percent modification (labeling of Cys 72)” value in assay [3] is reported as “significant increase”.
As to `CCC(=O)Nc1cc(Cl)cc(NC(=O)c2cnn(-c3ccc(OC)cc3)c2C(F)(F)F)c1` [Compound 4, N-(3-chloro-5-propionamidophenyl)-1-(4-methoxyphenyl)-5-(trifluoromethyl)-1H-pyrazole-4-carboxamide], the “reversible binding by BLI” value at WT H-Ras is “unable to detect measurable binding”. Also, the “rate of Compound 3 labeling (% labeled per hour) in presence of Compound 4” value on H-Ras(M72C) GDP is reported as “dose dependent decrease”; at H-Ras(M72C) GDP (listed as compound 4), “dose-dependent decrease”.
